Test results as given in ChEMBL document CHEMBL1201862, “PubChem BioAssay data set” (2004).
Active and inactive are the calls of the source.

How the values were obtained:
X-box-binding protein 1 = target: T1, X-box-binding protein 1 (Homo sapiens, UniProt P17861); type: functional, Cricetulus griseus;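 further: confirmatory dose-response counter-screen serving a CHOP assay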
T1 sequence (P17861 whole entry): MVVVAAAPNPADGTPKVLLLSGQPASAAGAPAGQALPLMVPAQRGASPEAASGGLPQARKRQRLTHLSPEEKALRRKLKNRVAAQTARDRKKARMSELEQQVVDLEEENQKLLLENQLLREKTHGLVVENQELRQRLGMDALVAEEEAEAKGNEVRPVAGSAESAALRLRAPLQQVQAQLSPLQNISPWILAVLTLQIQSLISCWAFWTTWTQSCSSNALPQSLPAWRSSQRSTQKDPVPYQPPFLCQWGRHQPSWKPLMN

Bcl-2-like protein 10 = target: T2, Bcl-2-like protein 10 (Homo sapiens, UniProt Q9HD36); assay: Bcl-B/TR3 peptide binding disruption – biochemical, fluorescence polarization, FITC-TR3 peptide, selectivity assay for Bfl-1 inhibitor project, primary screen (AID 748);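 further: fluorescence polarization from a fluorescein-labelled TR3 peptide binding purified Bcl-B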
T2 sequence (Q9HD36 whole entry): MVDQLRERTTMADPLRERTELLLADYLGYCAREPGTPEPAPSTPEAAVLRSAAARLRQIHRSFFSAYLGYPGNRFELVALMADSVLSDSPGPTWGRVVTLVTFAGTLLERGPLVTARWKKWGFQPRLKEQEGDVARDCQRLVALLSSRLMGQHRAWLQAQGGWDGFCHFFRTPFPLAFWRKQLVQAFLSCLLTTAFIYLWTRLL

Estrogen receptor beta = Estrogen receptor beta (Homo sapiens, UniProt Q92731); assay: blockers of SRC-3 recruitment to ERβ – biochemical, ELISA, streptavidin-HRP readout, orthogonal assay, confirmation (AID 1060)
Sequence of Estrogen receptor beta (Q92731 whole entry): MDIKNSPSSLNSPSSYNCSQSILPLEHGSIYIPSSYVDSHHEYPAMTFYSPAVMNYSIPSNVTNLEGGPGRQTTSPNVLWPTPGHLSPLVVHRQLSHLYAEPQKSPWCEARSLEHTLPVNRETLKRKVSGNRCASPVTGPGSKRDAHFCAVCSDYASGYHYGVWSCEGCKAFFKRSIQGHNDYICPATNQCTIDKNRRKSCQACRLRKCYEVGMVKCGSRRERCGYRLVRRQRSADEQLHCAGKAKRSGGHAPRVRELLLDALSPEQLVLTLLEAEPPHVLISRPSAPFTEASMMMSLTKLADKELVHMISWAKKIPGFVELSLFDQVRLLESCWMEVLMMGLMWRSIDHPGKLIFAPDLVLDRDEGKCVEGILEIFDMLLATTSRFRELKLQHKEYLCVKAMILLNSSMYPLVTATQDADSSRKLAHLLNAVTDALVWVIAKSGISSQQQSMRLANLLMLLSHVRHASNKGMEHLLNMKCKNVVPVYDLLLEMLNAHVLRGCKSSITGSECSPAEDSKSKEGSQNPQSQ

[1] = target: Intestinal-type alkaline phosphatase (Homo sapiens, UniProt P09923); assay: Dose Response confirmation of uHTS hits from a small molecule inhibitors of human intestinal alkaline phosphatase via a luminescent assay. [Related pubchem assays (depositor defined):AID2544, AID2574]; type: functional
Sequence of Intestinal-type alkaline phosphatase (P09923 whole entry): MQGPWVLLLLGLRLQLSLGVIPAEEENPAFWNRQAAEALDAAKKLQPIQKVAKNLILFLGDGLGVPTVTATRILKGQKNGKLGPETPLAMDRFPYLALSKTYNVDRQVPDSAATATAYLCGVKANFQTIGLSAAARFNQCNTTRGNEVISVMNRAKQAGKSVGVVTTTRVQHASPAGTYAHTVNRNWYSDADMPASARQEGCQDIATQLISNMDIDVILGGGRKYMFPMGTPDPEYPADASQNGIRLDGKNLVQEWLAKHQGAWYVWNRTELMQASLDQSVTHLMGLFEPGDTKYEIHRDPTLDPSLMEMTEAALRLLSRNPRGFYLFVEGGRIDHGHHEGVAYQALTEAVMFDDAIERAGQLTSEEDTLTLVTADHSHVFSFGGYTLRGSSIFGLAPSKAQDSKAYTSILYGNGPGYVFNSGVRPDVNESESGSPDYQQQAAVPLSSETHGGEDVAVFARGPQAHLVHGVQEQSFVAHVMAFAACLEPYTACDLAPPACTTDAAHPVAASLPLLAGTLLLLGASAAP

Cytochrome P450 2D6 = Cytochrome P450 2D6 (Homo sapiens, UniProt P10635); assay: qHTS Assay for Inhibitors and Substrates of Cytochrome P450 2D6. [Related pubchem assays: 410 ]; type: ADME; conditions: read-out: Potency
Sequence of Cytochrome P450 2D6 (P10635 whole entry): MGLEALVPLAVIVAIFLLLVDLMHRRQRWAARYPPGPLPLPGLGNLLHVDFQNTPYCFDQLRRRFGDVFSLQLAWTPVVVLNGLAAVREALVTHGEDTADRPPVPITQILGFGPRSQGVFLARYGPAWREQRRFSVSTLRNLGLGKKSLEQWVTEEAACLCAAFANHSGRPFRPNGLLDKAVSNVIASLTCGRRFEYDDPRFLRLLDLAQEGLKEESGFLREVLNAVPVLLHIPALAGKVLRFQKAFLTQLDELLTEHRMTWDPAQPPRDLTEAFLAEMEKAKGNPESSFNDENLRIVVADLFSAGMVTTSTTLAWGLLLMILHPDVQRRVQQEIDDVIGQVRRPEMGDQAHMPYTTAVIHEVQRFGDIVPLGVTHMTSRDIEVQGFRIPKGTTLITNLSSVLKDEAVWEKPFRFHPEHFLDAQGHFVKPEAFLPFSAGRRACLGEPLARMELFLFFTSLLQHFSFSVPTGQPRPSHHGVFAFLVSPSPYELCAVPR

Cytochrome P450 2C9 = Cytochrome P450 2C9 (Homo sapiens, UniProt P11712); conditions: Potency
Sequence of Cytochrome P450 2C9 (P11712 whole entry): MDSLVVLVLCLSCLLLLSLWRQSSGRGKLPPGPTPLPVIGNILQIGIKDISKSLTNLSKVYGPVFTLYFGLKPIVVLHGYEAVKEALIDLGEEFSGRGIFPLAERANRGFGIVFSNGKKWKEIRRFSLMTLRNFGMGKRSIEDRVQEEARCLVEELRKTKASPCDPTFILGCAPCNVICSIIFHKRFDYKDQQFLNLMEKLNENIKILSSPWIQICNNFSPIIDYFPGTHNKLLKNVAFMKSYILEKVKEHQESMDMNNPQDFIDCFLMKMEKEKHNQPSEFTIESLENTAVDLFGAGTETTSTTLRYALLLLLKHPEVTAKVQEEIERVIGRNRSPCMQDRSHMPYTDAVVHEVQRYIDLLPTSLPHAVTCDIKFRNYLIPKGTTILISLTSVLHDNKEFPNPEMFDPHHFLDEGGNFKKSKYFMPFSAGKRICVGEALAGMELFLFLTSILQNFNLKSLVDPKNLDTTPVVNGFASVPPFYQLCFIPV

Cytochrome P450 3A4 = Cytochrome P450 3A4 (Homo sapiens, UniProt P08684); conditions: Potency;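 further: confirmatory qHTS run detecting inhibitors and substrates of CYP3A4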
Sequence of Cytochrome P450 3A4 (P08684 whole entry): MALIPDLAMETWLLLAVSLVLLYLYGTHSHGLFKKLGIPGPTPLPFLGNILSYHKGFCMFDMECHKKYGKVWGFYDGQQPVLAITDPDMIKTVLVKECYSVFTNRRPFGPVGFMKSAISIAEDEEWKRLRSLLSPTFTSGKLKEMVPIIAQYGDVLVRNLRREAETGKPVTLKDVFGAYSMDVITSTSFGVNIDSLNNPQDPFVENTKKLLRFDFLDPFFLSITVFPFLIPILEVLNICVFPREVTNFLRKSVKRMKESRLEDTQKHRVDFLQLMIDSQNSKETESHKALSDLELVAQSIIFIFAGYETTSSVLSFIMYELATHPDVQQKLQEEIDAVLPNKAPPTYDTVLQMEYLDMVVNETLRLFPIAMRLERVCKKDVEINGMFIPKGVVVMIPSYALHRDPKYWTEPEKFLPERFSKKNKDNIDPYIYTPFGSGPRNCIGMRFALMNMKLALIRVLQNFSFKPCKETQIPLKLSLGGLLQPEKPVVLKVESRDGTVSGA

Genome polyprotein = Genome polyprotein (dengue virus type 2, UniProt P29990); assay: flavivirus cap methylation enzyme inhibition – biochemical, confirmation dose response, primary screen (AID 588689); type: functional
NS3 = NS3 (Hepatitis C virus, UniProt A3EZJ3); assay: PubChem AID 2173; set-up: species or system Hepacivirus hominis
Sequence of NS3 (A3EZJ3 whole entry): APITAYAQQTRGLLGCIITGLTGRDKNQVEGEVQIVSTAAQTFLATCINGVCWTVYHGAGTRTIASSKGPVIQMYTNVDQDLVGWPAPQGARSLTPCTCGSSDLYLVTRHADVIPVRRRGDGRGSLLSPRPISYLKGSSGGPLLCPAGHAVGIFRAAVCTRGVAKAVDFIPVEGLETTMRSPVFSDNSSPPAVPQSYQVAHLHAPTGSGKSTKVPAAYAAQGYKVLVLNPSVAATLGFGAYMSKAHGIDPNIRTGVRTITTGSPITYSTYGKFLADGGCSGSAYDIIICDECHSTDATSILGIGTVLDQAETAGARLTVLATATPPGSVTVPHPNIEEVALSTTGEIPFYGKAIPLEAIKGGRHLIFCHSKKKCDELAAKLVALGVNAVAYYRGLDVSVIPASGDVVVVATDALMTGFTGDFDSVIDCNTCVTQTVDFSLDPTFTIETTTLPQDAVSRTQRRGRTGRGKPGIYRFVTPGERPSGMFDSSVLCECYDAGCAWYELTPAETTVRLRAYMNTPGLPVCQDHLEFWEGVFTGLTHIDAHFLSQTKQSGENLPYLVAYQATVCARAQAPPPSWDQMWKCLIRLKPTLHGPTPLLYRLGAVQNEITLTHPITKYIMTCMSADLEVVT

Estrogen receptor = target: T3, Estrogen receptor (Homo sapiens, UniProt P03372);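 further: potency for inhibiting coactivator peptide recruitment to the receptor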
T3 sequence (P03372 whole entry): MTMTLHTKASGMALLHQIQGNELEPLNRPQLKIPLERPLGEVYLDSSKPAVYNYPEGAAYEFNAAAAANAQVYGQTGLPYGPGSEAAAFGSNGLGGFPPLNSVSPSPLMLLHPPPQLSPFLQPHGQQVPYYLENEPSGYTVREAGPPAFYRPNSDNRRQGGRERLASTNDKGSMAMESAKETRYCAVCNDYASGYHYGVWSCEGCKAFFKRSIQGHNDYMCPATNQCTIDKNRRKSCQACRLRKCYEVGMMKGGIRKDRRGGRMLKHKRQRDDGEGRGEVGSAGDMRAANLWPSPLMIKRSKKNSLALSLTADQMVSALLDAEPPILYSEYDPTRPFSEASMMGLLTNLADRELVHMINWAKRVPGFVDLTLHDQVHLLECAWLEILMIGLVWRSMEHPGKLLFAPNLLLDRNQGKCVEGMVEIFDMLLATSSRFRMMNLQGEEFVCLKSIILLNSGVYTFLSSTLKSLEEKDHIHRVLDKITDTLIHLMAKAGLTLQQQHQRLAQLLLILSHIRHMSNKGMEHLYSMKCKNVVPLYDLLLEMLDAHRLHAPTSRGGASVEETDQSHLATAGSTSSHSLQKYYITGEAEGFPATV

Troponin, cardiac muscle = Troponin, cardiac muscle (Homo sapiens, UniProt P19429+P45379+P63316); assay: compounds desensitizing RTF to calcium – biochemical, fluorescence, cardiac regulated thin filaments, triplicate IC50, dose response (AID 504742); type: protein-complex assay
ORF 73 = target: T4, ORF 73 (Human herpesvirus 8, UniProt O40947); assay: KSHV LANA DNA-binding disruption – biochemical, fluorescence polarization, cherry-picked samples, dose response (AID 504725); set-up: species or system Human gammaherpesvirus 8;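 further: fluorescence polarization of a labeled DNA duplex reporting LANA DNA binding; potency is for inhibitors that block LANA binding to the DNA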
T4 sequence (O40947 whole entry): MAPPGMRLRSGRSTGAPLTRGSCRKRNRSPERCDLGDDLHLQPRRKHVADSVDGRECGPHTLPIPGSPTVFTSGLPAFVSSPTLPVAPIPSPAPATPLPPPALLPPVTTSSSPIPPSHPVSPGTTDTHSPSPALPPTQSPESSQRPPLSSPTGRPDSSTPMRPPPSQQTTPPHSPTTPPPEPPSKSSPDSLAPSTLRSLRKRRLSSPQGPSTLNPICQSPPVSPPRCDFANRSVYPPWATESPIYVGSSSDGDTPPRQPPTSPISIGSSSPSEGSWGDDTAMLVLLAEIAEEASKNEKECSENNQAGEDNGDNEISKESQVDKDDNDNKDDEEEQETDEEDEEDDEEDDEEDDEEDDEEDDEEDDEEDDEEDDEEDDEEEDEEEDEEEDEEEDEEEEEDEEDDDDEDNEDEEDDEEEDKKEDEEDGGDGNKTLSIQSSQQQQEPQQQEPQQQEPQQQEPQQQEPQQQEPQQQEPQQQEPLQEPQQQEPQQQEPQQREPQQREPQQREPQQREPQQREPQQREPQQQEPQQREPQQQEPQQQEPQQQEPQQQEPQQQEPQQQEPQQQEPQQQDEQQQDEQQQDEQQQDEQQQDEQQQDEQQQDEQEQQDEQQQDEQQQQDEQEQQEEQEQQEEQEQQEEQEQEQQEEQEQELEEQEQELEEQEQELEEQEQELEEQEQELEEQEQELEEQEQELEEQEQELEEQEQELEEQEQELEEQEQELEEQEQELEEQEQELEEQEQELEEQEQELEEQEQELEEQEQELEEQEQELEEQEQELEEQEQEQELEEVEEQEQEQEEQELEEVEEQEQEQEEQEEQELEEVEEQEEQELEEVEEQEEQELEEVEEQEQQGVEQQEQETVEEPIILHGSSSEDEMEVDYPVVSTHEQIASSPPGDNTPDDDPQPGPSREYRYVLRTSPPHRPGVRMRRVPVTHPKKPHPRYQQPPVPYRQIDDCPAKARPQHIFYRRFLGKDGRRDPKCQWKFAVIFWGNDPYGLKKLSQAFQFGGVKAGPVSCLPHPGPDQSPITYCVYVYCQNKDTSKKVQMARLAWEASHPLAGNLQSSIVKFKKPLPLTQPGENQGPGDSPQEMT

[2] = target: 26S proteasome non-ATPase regulatory subunit 14 (Homo sapiens, UniProt O00487); assay: inhibition of proteasome subunit RPN11 – biochemical, fluorescence polarization, uHTS hits, confirmation (AID 602368); type: functional
Sequence of 26S proteasome non-ATPase regulatory subunit 14 (O00487 whole entry): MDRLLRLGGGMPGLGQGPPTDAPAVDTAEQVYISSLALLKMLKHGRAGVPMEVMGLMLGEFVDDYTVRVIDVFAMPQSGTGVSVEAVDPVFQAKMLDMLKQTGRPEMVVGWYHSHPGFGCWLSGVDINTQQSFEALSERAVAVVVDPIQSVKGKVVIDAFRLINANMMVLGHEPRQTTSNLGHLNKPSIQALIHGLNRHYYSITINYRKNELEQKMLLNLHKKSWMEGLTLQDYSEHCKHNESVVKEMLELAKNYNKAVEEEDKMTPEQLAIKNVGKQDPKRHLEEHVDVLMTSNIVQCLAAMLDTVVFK

Large T antigen = Large T antigen (Simian virus 40, UniProt P03070); type: functional, Betapolyomavirus macacae;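 further: Confirmatory-stage PubChem screen for compounds that inhibit SV40 T antigen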
Sequence of Large T antigen (P03070 whole entry): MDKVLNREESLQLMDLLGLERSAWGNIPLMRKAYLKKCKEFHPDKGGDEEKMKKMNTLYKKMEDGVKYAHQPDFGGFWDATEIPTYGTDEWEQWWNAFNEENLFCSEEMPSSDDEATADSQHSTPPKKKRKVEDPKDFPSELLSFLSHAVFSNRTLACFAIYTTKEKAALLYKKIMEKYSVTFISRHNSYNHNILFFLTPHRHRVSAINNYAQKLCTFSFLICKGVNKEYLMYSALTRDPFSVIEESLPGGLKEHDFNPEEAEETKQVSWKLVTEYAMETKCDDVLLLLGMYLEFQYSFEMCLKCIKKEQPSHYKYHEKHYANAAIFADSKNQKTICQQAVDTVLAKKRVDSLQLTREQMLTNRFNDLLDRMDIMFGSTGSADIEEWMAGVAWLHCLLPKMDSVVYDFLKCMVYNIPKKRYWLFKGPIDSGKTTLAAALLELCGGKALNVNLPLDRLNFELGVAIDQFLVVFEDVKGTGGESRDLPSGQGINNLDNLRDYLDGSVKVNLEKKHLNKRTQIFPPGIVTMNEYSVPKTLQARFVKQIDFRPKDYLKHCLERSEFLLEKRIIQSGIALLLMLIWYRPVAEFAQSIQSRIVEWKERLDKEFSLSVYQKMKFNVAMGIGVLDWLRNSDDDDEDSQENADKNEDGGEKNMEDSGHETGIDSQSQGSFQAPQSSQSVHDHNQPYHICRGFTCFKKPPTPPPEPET

[3] = target: 72 kDa type IV collagenase (Homo sapiens, UniProt P08253); assay: Dose Response validation of uHTS RPN11 inhibitor hits using a MMP-2 Fluorescence assay.; type: functional
Sequence of 72 kDa type IV collagenase (P08253 whole entry): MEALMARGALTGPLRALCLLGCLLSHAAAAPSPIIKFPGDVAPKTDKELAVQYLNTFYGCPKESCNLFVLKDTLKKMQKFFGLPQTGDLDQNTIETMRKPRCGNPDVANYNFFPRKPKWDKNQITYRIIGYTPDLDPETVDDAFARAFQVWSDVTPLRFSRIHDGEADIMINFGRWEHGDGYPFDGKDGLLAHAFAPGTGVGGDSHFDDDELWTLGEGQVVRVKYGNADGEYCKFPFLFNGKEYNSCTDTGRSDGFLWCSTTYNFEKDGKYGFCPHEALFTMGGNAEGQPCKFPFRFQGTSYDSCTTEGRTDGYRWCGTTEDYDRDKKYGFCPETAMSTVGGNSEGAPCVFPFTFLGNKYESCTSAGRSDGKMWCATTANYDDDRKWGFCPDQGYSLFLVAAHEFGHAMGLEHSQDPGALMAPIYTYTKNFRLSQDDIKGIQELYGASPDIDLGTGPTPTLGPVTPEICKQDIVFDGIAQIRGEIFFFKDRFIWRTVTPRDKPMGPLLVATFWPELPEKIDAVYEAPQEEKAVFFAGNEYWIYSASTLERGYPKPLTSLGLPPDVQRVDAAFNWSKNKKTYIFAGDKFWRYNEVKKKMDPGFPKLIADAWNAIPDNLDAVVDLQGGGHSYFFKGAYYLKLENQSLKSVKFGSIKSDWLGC

Prothrombin = Prothrombin (Bos taurus, UniProt P00735); assay: thrombin protease inhibitors – biochemical, fluorescence polarization, uHTS hits, dose response (AID 602369); type: functional
cells = type: functional
[4] = Vero E6 cell cytotoxicity, dose response, cytotoxicity control for non-replicating M. tuberculosis project, secondary assay (AID 492998); type: functional, VeroE6; conditions: Vero C1008
[5] = HepG2 cell cytotoxicity, dose response, cytotoxicity control for non-replicating M. tuberculosis project (AID 489018); type: functional; conditions: Mycobacterium tuberculosis
INS1 = assay: INS-1E survival protection against cytokine death – cell-based, luminescence, retest, dose response (AID 449756); type: functional; conditions: Rattus norvegicus;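 further: cell death triggered by IL-1 beta plus TNF-alpha plus IFN-gamma mixture; protective hits raise ATP signal compared with cytokine alone wells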
[6] = THP-1 cell cytotoxicity, dose response, cytotoxicity control for non-replicating M. tuberculosis project (AID 489025); type: functional

## O=C(Oc1ccc(O)cc1)C12CC3CC(CC(C3)C1)C2
X-box-binding protein 1
  Absolute IC50 (XBP1): 10 µM

## CCN1CCN(c2ccc(NC(=O)c3cccc4ncccc34)cc2)CC1
Bcl-2-like protein 10
  IC50: 50.1 µM (inactive)
Estrogen receptor beta
  IC50: 0.121 µM (not active)

## O=C(NC1CCCCCC1)c1ccc(-n2cnnc2)cc1
[1]
  IC50: > 100 µM (inactive)

## C=CCc1cccc(C2C(C)CCC3C(=O)N4C(CCC(C)C4c4cccc(CC=C)c4)C(=O)N32)c1 (centres undefined)
Cytochrome P450 2D6
  AC50: 3.16 µM (inconclusive)
Cytochrome P450 2C9
  AC50: 3.98 µM (inconclusive)
Cytochrome P450 3A4
  AC50: 0.2 µM (inconclusive)

## Cc1ccccc1NC(=O)CSc1nnc(-c2ccco2)c(-c2ccco2)n1
Bcl-2-like protein 10
  IC50: 27.3 µM (active)
Genome polyprotein
  IC50: 64.7 µM (active)
Estrogen receptor beta
  IC50: 1.98 µM (not active)
NS3
  IC50: 8.62 µM (active)
Estrogen receptor
  IC50: 14.9 µM (active)

## O=C(O)C(Cc1ccccc1)N1C(=O)/C(=C/C=C/c2ccco2)SC1=S (centres undefined)
Troponin, cardiac muscle
  IC50: > 71.5 µM (inactive)
ORF 73
  AC50: 108 µM (active)
[2]
  IC50: 7.33 µM (active)
Large T antigen
  IC50: 33.5 µM (active)
[3]
  IC50: 0.947 µM (active)
Prothrombin
  IC50: 75.3 µM (active)

## C/C(N)=C(/C#N)C(=O)CSc1nc2ccccc2[nH]1
Bcl-2-like protein 10
  IC50: 22.3 µM (active)

## C/C(=N\NC(=O)c1ccccc1OCc1ccc(F)cc1)c1ccccn1
cells
  IC50: 3.02 µM (active)
[4]
  CC50: 2.69 µM (active)
[5]
  CC50: 3.6 µM (active)
INS1
  AC50: 1.83 µM (active)
[6]
  CC50: 0.765 µM (active)
